Laboratory results: patent publication US20120201802A1, “METHOD FOR PRODUCING REDUCED COENZYME Q10, METHOD FOR STABILIZING SAME, AND COMPOSITION COMPRISING SAME” (Keneka Corporation, priority 2009, published 2012)

Tests used:
[1] = Reduction of oxidized coenzyme Q10 in limonene (Example 2, Comparative Example 2); conditions: after reaction, oxidized CoQ10 0.1 g + plant extract 1.0 g or compound 0.69 mmol, 85° C., 16 hr, nitrogen atmosphere
Protocol: While the present invention is explained in more detail in the following by referring to Examples, the present invention is not limited to those Examples alone. Moreover, the purity of reduced coenzyme Q10, the weight ratio of reduced coenzyme Q10/oxidized coenzyme Q10, and the like in the Examples were measured by the following HPLC analysis. […] To conveniently indicate the weight ratio of reduced coenzyme Q10 and oxidized coenzyme Q10 in the present Example, the ratio of reduced coenzyme Q10 to the total amount of coenzyme Q10 (total amount of oxidized coenzyme Q10 and reduced coenzyme Q10) is shown in percentage as a “weight ratio of reduced coenzyme Q10”. For example, “the weight ratio of reduced coenzyme Q10 is 20%” means that the weight ratio of reduced coenzyme Q10 and oxidized coenzyme Q10 is 20/80. • (HPLC analysis conditions) • column; SYMMETRY C18 (manufactured by Waters) 250 mm (length) 4.6 mm (inner diameter), • mobile phase; C2H5OH:CH3OH=4:3 (v:v), • detection wavelength; 210 nm, • flow rate; 1 ml/min, • retention time of reduced coenzyme Q10; 9.1 min, • retention time of oxidized coenzyme Q10; 13.3 min. […]

[2] = Reduction of oxidized coenzyme Q10 in 99% ethanol (Example 1, Comparative Example 1); conditions: after reaction, oxidized CoQ10 0.1 g + plant extract 1.0 g (10-fold weight) or compound 0.69 mmol, 78° C., 16 hr, nitrogen atmosphere
Protocol: (§1) While the present invention is explained in more detail in the following by referring to Examples, the present invention is not limited to those Examples alone. Moreover, the purity of reduced coenzyme Q10, the weight ratio of reduced coenzyme Q10/oxidized coenzyme Q10, and the like in the Examples were measured by the following HPLC analysis. […] To conveniently indicate the weight ratio of reduced coenzyme Q10 and oxidized coenzyme Q10 in the present Example, the ratio of reduced coenzyme Q10 to the total amount of coenzyme Q10 (total amount of oxidized coenzyme Q10 and reduced coenzyme Q10) is shown in percentage as a “weight ratio of reduced coenzyme Q10”. For example, “the weight ratio of reduced coenzyme Q10 is 20%” means that the weight ratio of reduced coenzyme Q10 and oxidized coenzyme Q10 is 20/80. • (HPLC analysis conditions) • column; SYMMETRY C18 (manufactured by Waters) 250 mm (length) 4.6 mm (inner diameter), • mobile phase; C2H5OH:CH3OH=4:3 (v:v), • detection wavelength; 210 nm, • flow rate; 1 ml/min, • retention time of reduced coenzyme Q10; 9.1 min, • retention time of oxidized coenzyme Q10; 13.3 min.
Oxidized coenzyme Q10 crystal (0.1 g) and a component derived from a naturally-occurring substance (plant extract, 1.0 g, 10-fold weight) described in Table 1 were respectively added to 99% ethanol (15 g), and the mixture was stirred at 78° C. for 16 hr under a nitrogen atmosphere.
Oxidized coenzyme Q10 crystal (0.1 g, 0.12 mmol) and the compound described in Table 1 (0.69 mmol) were respectively added to 99% ethanol (15 g), and the mixture was stirred at 78° C. for 16 hr under a nitrogen atmosphere.

[3] = Reduction of oxidized coenzyme Q10 in Span 80/glycerol/Tween 80/MCT mixture (Example 3, Comparative Example 3); conditions: after reaction, oxidized CoQ10 0.1 g + plant extract 1.0 g or compound 0.69 mmol, 80° C., 16 hr, nitrogen atmosphere
Protocol: as §1
Oxidized coenzyme Q10 crystal (0.1 g) and a component derived from a naturally-occurring substance described in Table 3 (plant extract, 1.0 g, 10-fold weight) or a compound (0.69 mmol) were respectively added to a mixture of Span 80 (0.12 g), glycerol (0.09 g), Tween 80 (1.49 g) and MCT (0.43 g), and the mixture was stirred at 80° C. for 16 hr under a nitrogen atmosphere.

Row | Compound | weight ratio of reduced coenzyme Q10 [1] [%] | weight ratio of reduced coenzyme Q10 [2] [%] | weight ratio of reduced coenzyme Q10 [3] [%]
1 | O=C1O[C@H]([C@@H](O)CO)C([O-])=C1O.[Na+] [L-sodium ascorbate] | 1 |  | 
2 | O=C(O)CCCC[C@@H](S)CCS [R-dihydrolipoic acid] | 1 |  | 
3 | C[N+](C)(C)CC(O)CC(=O)[O-] (stereo not shown) [carnitine] |  | 0 | 0
4 | retinol acetate |  | 4 | 

Second part, the compound after the results:

Row | weight ratio of reduced coenzyme Q10 [1] [%] | weight ratio of reduced coenzyme Q10 [2] [%] | weight ratio of reduced coenzyme Q10 [3] [%] | Compound
5 |  | 2 | 0 | NC(=O)C1=CN([C@@H]2O[C@H](COP(=O)(O)OP(=O)(O)OC[C@H]3O[C@@H](n4cnc5c(N)ncnc54)[C@H](O)[C@@H]3O)[C@@H](O)[C@H]2O)C=CC1 [NADH]
6 |  | 4 | 3 | CC1=C(/C=C/C(C)=C/C=C/C(C)=C/C=O)C(C)(C)CCC1 [retinal]
7 |  |  | 0 | Cc1c(C)c2c(c(C)c1O)CC[C@@](C)(CCC[C@H](C)CCC[C@H](C)CCCC(C)C)O2 [α-tocopherol]
